In US20250387410A1, “TREATMENT OF ANTI-VEGF REFRACTORY OPHTHALMIC RETINAL EYE CONDITIONS” (Eye Co Pty Ltd., priority 2022, published 2025):
Several values for one entry are separate records, joined by “and”; a condition that tells them apart may be missing. Equal values may be shown once. Entries after “also recorded” stand apart in the source; their conditions may differ.

How the values were obtained:
[1] = system: subjects with geographic atrophy (GA) secondary to AMD; assay: Phase 1b single-dose dose-escalation intravitreal trial in geographic atrophy; format: in vivo, human
Experimental: To evaluate the safety and tolerability of a single-dose intravitreal (IVT) injection of 1 mg/0.1 mL and 2 mg/0.1 mL Fludrocortisone acetate (FCA) in subjects with geographic atrophy (GA) secondary to Age-Related Macular Degeneration (AMD).
Methods: This was a two-part dose-escalation prospective study. Part-1 involved a single participant treated with 1 mg/0.1 ml and monitored up to 28-days before being reviewed by a safety review committee. Two subsequent participants were then dosed with the same dose. Part-2 involved a single participant dosed with 2 mg/0.1 ml and monitored up to 28-days when a further 5 participants were dosed. All participants were followed up for 6-months after baseline.
A full ophthalmic assessment was performed at study visits which included GA area, best-corrected visual acuity (BCVA), low-luminance BCVA and intra-ocular pressure (IOP). Adverse events (AE) were reported from the first dose of FCA until the end-of-study visit.
This single-centre, phase 1b prospective, open-labeled, single-dose, dose-escalation clinical trial was conducted on 9 participants enrolled at a single site between August 2019 to April 2021. All patients were followed up for 6 months after baseline. Ethics approval was obtained before commencement and the trial was listed on the Australian and New Zealand Clinical Trial Registry (accessible via www.anzctr.org.au; ANZCTR no. 12618001308280). An independent data and safety committee provided oversight of the clinical trial. This study adhered to the tenets of the Declaration of Helsinki. Informed consent was obtained from all participants before enrolment into the study.
Fludrocortisone acetate was formulated for intravitreal administration as a powder solution for injection to ensure long-term stability similar to other cortico-steroids (15). Vials contained 10 mg of FCA powder and were reconstituted with sterile sodium chloride solution (0.9%) according to the appropriate dosage prior to injection.
Inclusion criteria referring the study eye were as follows: diagnosis of GA secondary to AMD confirmed using fundus autofluorescence (FAF) imaging, GA area between ≥1.9 and ≤17 mm2 (1 and 7 disc areas (DA) respectively), best corrected visual acuity (BCVA) of 24 letters or better using Early Treatment Diabetic Retinopathy Study (ETDRS) charts.
A full ophthalmic assessment was performed at each study visit which included GA area assessed through FAF imaging, BCVA, lower-luminance BCVA (LL-BCVA) and intra-ocular pressure (IOP). Participants were assessed at screening, baseline, day 1, day 7, day 14, day 28, day 60, day 90 and day 150 (end of study). Blood and urine samples were collected for safety analysis at screening, baseline, day 7, day 28 and day 150.
Part 1 of the study involved a single participant treated with 1 mg/0.1 ml FCA to assess safety and tolerability. This participant was followed-up for 28 days before the results were reviewed by an independent data safety monitoring committee (DSMB). Subsequent to approval by the DSMB, a further 2 participants were treated with 1 mg/0.1 ml FCA and followed-up for a further 28 days after treatment before commencement of part 2.
Part 2 involved a single dose of 2 mg/0.1 ml of FCA in a single participant and followed-up for 28 days like part 1. The DSMB reviewed the results prior to enrolment of the remaining 5 participants.
Fundus auto-fluorescence was captured using Heidelberg Spectralis (Heidelberg Engineering, Heidelberg, Germany). The assessment of GA size and progression was performed using FAF was performed by 2 graders (T.H and E.C.) in a blinded manner using Heidelberg region finder software version 2.6.2.0 (FIG. 1), a semi-automated program used to quantify atrophic areas. Baseline FAF images were defined and used to assess subsequent visits using the region finder software. In cases where there was a discrepancy of more than 20% between the two graders, a third grader (A.C.) evaluated the images. […]

[2] = system: Ccl2, Il-6, Il-8 expression in MIO-M1 cells; assay: TNF-α stimulation of MIO-M1 cells, cytokine gene expression by QRT-PCR; format: cell-based, human; settings: 1 μg/μl steroid, 1 ng/μl TNF-α, 12 h, versus TNF alone
Text: The immortalised retinal cells used were as follows: MIO-M1 cells (Muller cell-derived; Müller 1 Moorefields, Institute of Ophthalmology, Dr A. Limb, Institute of Ophthalmology, University College, UK); ARPE19 (RPE-derived; ATCC CRL-2302, American Tissue Culture Collection, VA, USA); and 661W cells (photoreceptor-like derived; kindly gifted by Dr Muayyad R. Al-Ubaidi, Department of Cell Biology, University of Oklahoma Health Sciences Centre, Oklahoma City, OK, USA). Cells were authenticated and validated from Cell Bank Australia.
IL-1β and TNF-α were administered to MIO-M1 cells to initiate an inflammatory response in order to test the anti-inflammatory properties of the selected corticosteroids. MIO-M1 cells were grown to a cell density of 50,000 cells per well in a 24 well plate using growth media and foetal bovine serum as described (Section 2.1.1). MIO-M1 cells were challenged with either 1 ng/μl of IL-1β or TNF-α (R&D Systems, MN, USA). Experimental wells were treated with either 1 μg/μl FA, TA or Dexamethasone. […]
Following purification of RNA, cDNA was synthesized using the Bioline Tetro kit (Bioline, Australia) as per the manufacturer's instructions. Quantitative Real Time Polymerase Chain Reaction (QRT-PCR) was undertaken to profile gene expression changes in animal and cell culture samples. […] Data was analysed using the QuantStudio 12K Flex Software (Applied Biosystems, USA).

[3] = fellow (uninjected) eye of treated participants, day 150

For CC(=O)OCC(=O)[C@@]1(O)CC[C@H]2[C@@H]3CCC4=CC(=O)CC[C@]4(C)[C@@]3(F)[C@@H](O)C[C@@]21C [FA, 9-α-Fluoro-11 β. 17 α, 21-trihydroxy-4-pregnene-3, 20 dione acetate], the “loss of BCVA letters in the initial pilot participant” value ([1]; 1 mg/ml, day 14, one participant, deemed most likely unrelated by the DSMB) was 22 letters, the “adverse event in one participant” value ([1]; 2 mg/ml, after day 90, study eye, resolved after 1 week) was “nasal subconjunctival haemorrhage” and the “other adverse events throughout the study” value ([1]; all 9 participants) was “No other adverse events”. The systemic adverse event ([1]; dose escalation study, 9 participants) was “no systemic adverse event”, the “BCVA mean change from baseline, fellow eye” value [1, 3] was 4.88 ± 8.37 letters and the “IOP mean change from baseline, fellow eye” value [1, 3] was −0.625 ± 4.24 mmHg. The “LLVA mean change from baseline, fellow eye” value [1, 3] was 4.5 ± 11.49 letters, the “GA area mean change from baseline, fellow eye” value ([1]; fellow (uninjected) eye of treated participants, over 6 months, listed as FCA) was 0.62 mm^2 and 0.62 ± 4.49 mm^2 and the “clinical safety and tolerability” value ([1]; intravitreal, patients with GA secondary to AMD) was “clinically safe and well-tolerated”. The “serious AEs (ocular or systemic)” value ([1]; single IVT 1 mg/0.1 ml or 2 mg/0.1 ml, 9 participants, 6 months) was “no serious AEs”, the “cataract development / lens opacity” value ([1]; single IVT 1 or 2 mg/0.1 ml, 6 months follow-up, no formal lens grading, listed as FCA) was “no participants required/underwent cataract surgery; also recorded: not observed; also recorded: no evidence” and the “increase of IOP” value ([1]; single IVT 1 or 2 mg/0.1 ml, study eye, 6 months follow-up, listed as FCA) was “No significant increases; also recorded: not observed; also recorded: did not increase; also recorded: no evidence”. For the same compound, the “IOP mean change from baseline, study eye” value ([1]; study eye, day 150 compared to baseline, listed as FCA) was −0.25 mmHg and −0.25 ± 4.06 mmHg, the “GA area mean change from baseline, study eye” value ([1]; study eye, over 6 months, FAF region finder, listed as FCA) was 0.5 mm^2 and 0.5 ± 5.69 mm^2 and the “changes in body temperature, heart rate, systolic or diastolic blood pressure” value ([1]; throughout the study) was “no significant changes”. For the same compound, the “Ccl2, Il-6, and Il-8 expression after TNF stimulation” value [2] was “significantly reduced; also recorded: drastically reduced; also recorded: significantly inhibited”.
